Results as given in ChEMBL document CHEMBL1201862, “PubChem BioAssay data set” (2004).
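Grown in 96-well plates, cells were treated for 48 hours with each compound at five concentrations. Insufficient inhibition: endpoint recorded as highest concentration tested. Abbreviation: GI50, concentration required for 50% inhibition of growth.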 Active and inactive are the calls of the source. No stated cut-off is given here; in the data, active = GI50 up to about 1.1 µM and inactive = higher. Peptide text beside a SMILES is read from it.

Key:
Experiment in all cases: NCI tumour cell line growth inhibition, 48 h
[1] = tested on: COLO 205
[2] = tested on: UACC-62
[3] = tested on: ACHN
[4] = tested on: SK-MEL-28
[5] = tested on: K562
[6] = tested on: SNB-75
[7] = tested on: Hs-578T
[8] = tested on: MDA-N
[9] = tested on: MCF7
[10] = tested on: A498
[11] = tested on: HL-60
[12] = tested on: KM12
[13] = tested on: SF-295
[14] = tested on: HOP-92
[15] = tested on: OVCAR-8
[16] = tested on: LOX IMVI
[17] = tested on: Malme-3M
[18] = tested on: CCRF-CEM
[19] = tested on: NCI-H522
[20] = tested on: SR

Measured: GI50

COc1ccccc1N1C(=O)CSC1c1c[nH]c2ccccc12 (stereo not given)
inactive: [1] > 100 µM | [2] > 100 µM | [3] > 100 µM | [4] 66.7 µM | [5] > 100 µM | [6] 27.6 µM | [7] > 100 µM | [8] > 100 µM | [9] > 100 µM | [10] > 100 µM | [11] > 100 µM | [12] > 100 µM | [13] > 100 µM | [14] > 100 µM | [15] > 100 µM

Cc1ccc(NC2=CC(=O)C(NO)c3ccccc32)cc1 (stereo not given)
inactive: [1] 2.81 µM | [2] 1.51 µM | [3] 2.84 µM | [4] 8.13 µM | [6] 3.37 µM | [8] 2.61 µM | [9] 2.66 µM | [10] 16.3 µM | [11] 2 µM | [12] 3.32 µM | [13] 3.98 µM | [16] 2.93 µM | [14] 2.7 µM | [15] 1.63 µM

C(=N\c1ccc(-c2nc3ccccc3s2)cc1)/c1ccc[nH]1
inactive: [1] 16.3 µM | [2] 15.6 µM | [3] 20.7 µM | [17] 18.2 µM | [4] 20.1 µM | [5] 20.4 µM | [6] 22.2 µM | [18] 21.7 µM | [7] 19.7 µM | [8] 18 µM | [10] 15.7 µM | [11] 16.5 µM | [12] 20.2 µM | [19] 14.1 µM | [13] 13.3 µM | [20] 21.4 µM | [16] 17.3 µM | [14] 17.4 µM | [15] 27.6 µM

CCOC(=O)C(C(=O)OCC)C(NC(=O)Nc1cc(C(F)(F)F)ccc1OC)(C(F)(F)F)C(F)(F)F
inactive: [1] 17.8 µM | [2] 22.5 µM | [3] 29.1 µM | [17] 24.5 µM | [4] 37.5 µM | [5] 24.2 µM | [18] 20.8 µM | [7] 25.2 µM | [8] 33.2 µM | [9] 37.2 µM | [10] 16.5 µM | [11] 21.8 µM | [12] 26.9 µM | [19] 22.3 µM | [13] 23.2 µM | [16] 29.8 µM | [14] 25.5 µM | [15] 31.6 µM

N#Cc1c(-c2ccccc2)c(/C=N/c2cccc(C(F)(F)F)c2)c(=O)n2c1[nH]c1ccccc12
inactive: [1] > 100 µM | [3] 30.1 µM | [17] 42.3 µM | [4] 59 µM | [6] 46 µM | [18] 40.4 µM | [8] 28 µM | [9] 35.6 µM | [10] 34.4 µM | [12] 19.4 µM | [19] 15.1 µM | [13] 46.2 µM | [16] 32.6 µM | [15] 24.8 µM

COC[C@@H](/N=C/c1ccc([N+](=O)[O-])cc1)C(C)C
inactive: [2] > 100 µM | [3] > 100 µM | [17] > 100 µM | [4] > 100 µM | [5] 34.1 µM | [6] > 100 µM | [18] 75.9 µM | [7] > 100 µM | [8] 29.4 µM | [9] 95.1 µM | [12] > 100 µM | [19] > 100 µM | [13] > 100 µM | [20] 92.7 µM | [16] 52.7 µM | [15] > 100 µM

O=c1c2ccccc2nc(N/N=C/c2ccccc2O)n1-c1ccccc1
inactive: [1] 3.99 µM | [2] 2.77 µM | [3] 3.62 µM | [17] 12.2 µM | [4] 11.4 µM | [5] 4.5 µM | [6] 11 µM | [18] 3.27 µM | [7] 7.82 µM | [8] 7.64 µM | [9] 3.33 µM | [10] > 100 µM | [11] 2.65 µM | [19] 4.84 µM | [13] 6.4 µM | [16] 4.04 µM | [14] 13 µM | [15] 1.99 µM

C=CCC(SC)C1=C(C)C(=O)c2ccccc21 (stereo not given)
inactive: [2] > 10 µM | [3] > 10 µM | [17] > 10 µM | [4] > 10 µM | [5] > 10 µM | [18] 6.55 µM | [8] > 10 µM | [9] > 10 µM | [10] > 10 µM | [12] > 10 µM | [13] > 10 µM | [20] > 10 µM | [16] > 10 µM | [14] > 10 µM | [15] > 10 µM

CC(C)CC(NP(=O)(O)OC1OC(C)C(O)C(O)C1O)C(=O)NC(Cc1c[nH]c2ccccc12)C(=O)O (stereo not given)
inactive: [1] > 100 µM | [2] > 100 µM | [17] > 100 µM | [4] > 100 µM | [5] > 100 µM | [6] > 100 µM | [18] > 100 µM | [7] > 100 µM | [8] > 100 µM | [9] > 100 µM | [10] > 100 µM | [12] > 100 µM | [19] > 100 µM | [13] > 100 µM | [14] > 100 µM | [15] > 100 µM

Cc1nc(NC(C)(CO)CO)nc(N/N=C/c2ccc(Cl)cc2)c1C(=O)Nc1ccc(Cl)cc1
inactive: [1] > 100 µM | [2] 59.8 µM | [3] 47.9 µM | [17] > 100 µM | [4] > 100 µM | [5] > 100 µM | [6] > 100 µM | [18] 42.9 µM | [7] > 100 µM | [8] > 100 µM | [9] 51.1 µM | [11] > 100 µM | [12] 86.7 µM | [19] 48.1 µM | [13] > 100 µM | [20] > 10 µM | [16] > 100 µM | [15] > 100 µM

[O-][N+]1=C(c2ccccc2)/C(=C2/C(c3ccccc3)=[N+]([O-])c3ccccc32)Cc2ccccc21
inactive: [1] 17.3 µM | [2] 14.1 µM | [3] 20.9 µM | [17] 21.3 µM | [4] 22.3 µM | [5] 19.1 µM | [6] 15.5 µM | [18] 13.1 µM | [8] 17.1 µM | [9] 43.4 µM | [10] 5.52 µM | [11] 40.1 µM | [12] 18.7 µM | [19] 15.3 µM | [13] 15.3 µM | [16] 16.7 µM | [14] 15.2 µM | [15] 16.6 µM

O=C(C(=O)c1cc(-c2ccccc2)nc2ccc3ccccc3c12)c1ccccc1
inactive: [1] 88.1 µM | [2] 38.8 µM | [3] > 100 µM | [17] 27.8 µM | [4] 28.6 µM | [5] 18.5 µM | [6] 18.4 µM | [18] 24.7 µM | [7] 20.7 µM | [8] 36.1 µM | [9] 28.1 µM | [10] 90.4 µM | [11] 20.7 µM | [12] 31.3 µM | [13] 52.5 µM | [20] 11.7 µM | [16] 52 µM | [15] 61.2 µM

Cc1cc2c(c(/C=N/Cc3ccccc3)c1)OC1(C=C2)Oc2ccccc2C(=O)N1C (stereo not given)
inactive: [1] 17.9 µM | [2] 22.4 µM | [3] 20.7 µM | [4] 29.8 µM | [5] 14.1 µM | [6] 16.4 µM | [18] 11.6 µM | [7] 18.3 µM | [9] 28.9 µM | [10] 23.9 µM | [11] 21 µM | [12] 25.2 µM | [13] 29.6 µM | [20] 3.54 µM | [16] 17.4 µM | [14] 17.5 µM | [15] 16.5 µM

CC(C)CC(NC(=O)C(CC(C)C)NC(=O)C(Cc1c[nH]cn1)NC(=O)C(C)NC(=O)C(NC(=O)C(C)NC(=O)C(Cc1c[nH]c2ccccc12)NC(=O)C(CCC(=O)O)NC(=O)C(N)Cc1ccccc1)C(C)C)C(N)=O (stereo not given) (H-FEWAVAHLL-NH2; configuration not given here)
inactive: [1] > 12.5 µM | [2] > 12.5 µM | [3] > 100 µM | [17] > 12.5 µM | [4] 63.4 µM | [5] > 12.5 µM | [6] > 100 µM | [18] > 12.5 µM | [7] > 12.5 µM | [8] > 12.5 µM | [9] > 12.5 µM | [10] > 12.5 µM | [11] > 12.5 µM | [12] > 12.5 µM | [19] > 12.5 µM | [13] > 12.5 µM | [16] > 12.5 µM | [15] > 12.5 µM

O=S(=O)(O)c1cc(Nc2ccnc3ccccc23)c2c(S(=O)(=O)O)cc(S(=O)(=O)O)cc2c1
inactive: [1] > 100 µM | [2] > 100 µM | [17] > 100 µM | [4] > 100 µM | [6] > 100 µM | [18] > 100 µM | [7] > 100 µM | [8] > 100 µM | [9] > 100 µM | [10] > 100 µM | [12] > 100 µM | [19] > 100 µM | [16] > 100 µM | [15] > 100 µM

COC(=O)[C@H](Cc1ccccc1)NC(=O)c1ccc(CNC(=O)/C=C/c2ccc(-c3ccccc3)cc2)cc1
inactive: [1] > 100 µM | [2] 44.2 µM | [3] > 100 µM | [17] 24.9 µM | [4] > 100 µM | [5] 77.1 µM | [6] 10.5 µM | [18] 6.62 µM | [7] 22.8 µM | [8] > 100 µM | [9] > 100 µM | [10] > 100 µM | [11] 25.9 µM | [12] > 100 µM | [13] 19.7 µM | [14] 80.9 µM | [15] 7.1 µM
